Experiment [1] has as its target T1, Discoidin domain-containing receptor 2 (Homo sapiens, UniProt Q16832).
T1 sequence (Q16832 whole entry): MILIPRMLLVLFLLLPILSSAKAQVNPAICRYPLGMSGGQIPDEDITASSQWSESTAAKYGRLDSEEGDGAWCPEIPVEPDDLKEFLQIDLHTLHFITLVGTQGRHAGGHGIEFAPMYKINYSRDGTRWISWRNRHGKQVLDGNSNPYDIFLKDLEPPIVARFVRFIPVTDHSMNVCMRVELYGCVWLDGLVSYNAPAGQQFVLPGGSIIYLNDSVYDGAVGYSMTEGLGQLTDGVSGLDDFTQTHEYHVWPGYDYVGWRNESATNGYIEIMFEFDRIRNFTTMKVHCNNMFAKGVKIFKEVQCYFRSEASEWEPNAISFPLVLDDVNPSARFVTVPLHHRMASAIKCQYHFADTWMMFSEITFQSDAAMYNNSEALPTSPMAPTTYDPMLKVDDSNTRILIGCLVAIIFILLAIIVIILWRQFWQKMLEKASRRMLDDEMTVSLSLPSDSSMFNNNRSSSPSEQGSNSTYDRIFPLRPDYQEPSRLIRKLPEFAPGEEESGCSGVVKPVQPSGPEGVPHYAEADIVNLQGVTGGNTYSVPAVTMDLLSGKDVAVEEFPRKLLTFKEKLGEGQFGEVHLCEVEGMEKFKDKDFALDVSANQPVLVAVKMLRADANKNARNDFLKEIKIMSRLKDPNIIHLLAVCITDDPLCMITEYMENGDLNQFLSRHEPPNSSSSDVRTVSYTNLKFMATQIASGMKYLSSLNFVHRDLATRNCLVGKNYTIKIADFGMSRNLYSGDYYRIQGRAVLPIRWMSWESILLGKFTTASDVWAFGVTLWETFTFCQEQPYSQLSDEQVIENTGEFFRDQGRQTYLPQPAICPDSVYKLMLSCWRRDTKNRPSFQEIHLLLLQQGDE
Briefly: Inhibition of human DDR2 by discoverX kinome scan assay.

The target in experiment [2] is T2, Muscle, skeletal receptor tyrosine-protein kinase (Homo sapiens, UniProt O15146).
T2 sequence (O15146 whole entry): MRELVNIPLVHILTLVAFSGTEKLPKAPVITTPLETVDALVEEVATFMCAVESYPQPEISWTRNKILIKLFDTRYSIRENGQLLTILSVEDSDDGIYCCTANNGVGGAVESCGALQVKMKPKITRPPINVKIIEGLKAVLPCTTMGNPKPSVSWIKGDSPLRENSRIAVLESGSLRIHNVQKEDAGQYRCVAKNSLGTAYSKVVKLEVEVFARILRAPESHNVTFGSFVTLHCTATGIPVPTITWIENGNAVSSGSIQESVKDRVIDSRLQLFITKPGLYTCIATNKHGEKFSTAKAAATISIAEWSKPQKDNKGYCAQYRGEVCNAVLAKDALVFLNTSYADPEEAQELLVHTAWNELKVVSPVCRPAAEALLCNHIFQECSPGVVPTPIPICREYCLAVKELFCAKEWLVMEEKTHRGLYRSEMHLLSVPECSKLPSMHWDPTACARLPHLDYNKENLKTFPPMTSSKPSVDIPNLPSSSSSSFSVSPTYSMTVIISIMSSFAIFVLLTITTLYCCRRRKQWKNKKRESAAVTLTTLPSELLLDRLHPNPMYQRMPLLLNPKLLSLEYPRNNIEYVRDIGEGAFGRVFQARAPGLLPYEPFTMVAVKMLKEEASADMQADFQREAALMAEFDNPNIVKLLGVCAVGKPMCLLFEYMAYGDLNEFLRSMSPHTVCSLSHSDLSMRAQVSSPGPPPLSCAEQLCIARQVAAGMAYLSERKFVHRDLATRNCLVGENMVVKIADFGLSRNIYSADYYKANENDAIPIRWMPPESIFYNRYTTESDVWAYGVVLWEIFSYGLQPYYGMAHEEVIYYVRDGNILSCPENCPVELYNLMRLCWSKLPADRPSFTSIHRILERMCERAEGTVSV
The experiment in a line: Inhibition of human MUSK by discoverX kinome scan assay.

The target in experiment [3] is Epithelial discoidin domain-containing receptor 1 (Homo sapiens, UniProt Q08345). The experiment in a line: Inhibition of human DDR1 by discoverX kinome scan assay.
Sequence of Epithelial discoidin domain-containing receptor 1 (Q08345 whole entry, the tested form may be a part): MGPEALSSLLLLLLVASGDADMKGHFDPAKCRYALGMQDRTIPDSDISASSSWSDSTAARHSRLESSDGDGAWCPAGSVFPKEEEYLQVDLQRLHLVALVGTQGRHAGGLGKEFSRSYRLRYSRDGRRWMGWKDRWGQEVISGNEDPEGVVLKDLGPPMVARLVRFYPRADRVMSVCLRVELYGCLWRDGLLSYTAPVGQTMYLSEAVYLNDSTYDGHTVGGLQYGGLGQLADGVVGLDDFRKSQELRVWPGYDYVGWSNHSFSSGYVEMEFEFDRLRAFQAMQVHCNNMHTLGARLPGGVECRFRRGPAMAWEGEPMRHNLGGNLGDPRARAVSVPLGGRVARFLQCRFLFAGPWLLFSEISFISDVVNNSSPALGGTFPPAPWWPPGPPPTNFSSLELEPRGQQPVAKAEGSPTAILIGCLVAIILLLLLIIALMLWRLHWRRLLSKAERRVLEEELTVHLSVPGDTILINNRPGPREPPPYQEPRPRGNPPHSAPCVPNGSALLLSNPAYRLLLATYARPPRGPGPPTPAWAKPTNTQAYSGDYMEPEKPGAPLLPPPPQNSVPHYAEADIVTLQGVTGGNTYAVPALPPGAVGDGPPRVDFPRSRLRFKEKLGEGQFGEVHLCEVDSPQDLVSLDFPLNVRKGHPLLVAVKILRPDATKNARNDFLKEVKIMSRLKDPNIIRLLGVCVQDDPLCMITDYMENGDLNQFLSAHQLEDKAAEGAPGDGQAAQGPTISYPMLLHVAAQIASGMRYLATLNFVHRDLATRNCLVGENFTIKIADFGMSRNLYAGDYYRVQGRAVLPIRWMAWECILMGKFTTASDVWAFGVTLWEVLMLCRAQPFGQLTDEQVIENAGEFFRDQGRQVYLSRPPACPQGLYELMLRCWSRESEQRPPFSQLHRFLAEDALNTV
In experiment [4] the target is High affinity nerve growth factor receptor (Homo sapiens, UniProt P04629). Briefly: Inhibition of human TRKA by discoverX kinome scan assay.
Sequence of High affinity nerve growth factor receptor (P04629 whole entry): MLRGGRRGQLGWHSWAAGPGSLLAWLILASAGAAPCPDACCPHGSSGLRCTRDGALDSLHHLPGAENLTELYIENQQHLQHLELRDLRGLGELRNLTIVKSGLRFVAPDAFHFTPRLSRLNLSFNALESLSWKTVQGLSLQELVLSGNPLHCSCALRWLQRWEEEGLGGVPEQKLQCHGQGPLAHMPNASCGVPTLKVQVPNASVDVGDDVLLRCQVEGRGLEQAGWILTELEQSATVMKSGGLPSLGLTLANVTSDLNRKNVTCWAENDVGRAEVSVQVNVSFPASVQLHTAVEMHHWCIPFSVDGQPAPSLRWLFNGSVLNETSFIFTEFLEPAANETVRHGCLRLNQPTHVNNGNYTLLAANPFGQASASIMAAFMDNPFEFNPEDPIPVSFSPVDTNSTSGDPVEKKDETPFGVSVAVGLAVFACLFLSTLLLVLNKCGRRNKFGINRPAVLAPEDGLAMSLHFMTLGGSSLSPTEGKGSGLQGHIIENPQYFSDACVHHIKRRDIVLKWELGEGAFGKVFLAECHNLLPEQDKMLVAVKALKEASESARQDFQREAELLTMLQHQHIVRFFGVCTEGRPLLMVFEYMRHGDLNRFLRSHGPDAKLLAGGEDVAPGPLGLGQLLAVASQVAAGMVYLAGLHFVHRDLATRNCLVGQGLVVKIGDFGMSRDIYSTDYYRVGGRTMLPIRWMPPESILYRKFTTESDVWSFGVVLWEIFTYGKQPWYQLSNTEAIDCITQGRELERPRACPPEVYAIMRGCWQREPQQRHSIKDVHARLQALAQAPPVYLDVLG
For experiment [5], the system named is BaF3. The experiment in a line: Antiproliferative activity against mouse BaF3 cells harbouring FLT3-ITD-F691L mutant. Format: functional, cell-based.
Experiment [6] has as its target T3, Receptor-type tyrosine-protein kinase FLT3 (Homo sapiens, UniProt P36888).
T3 sequence (P36888 whole entry): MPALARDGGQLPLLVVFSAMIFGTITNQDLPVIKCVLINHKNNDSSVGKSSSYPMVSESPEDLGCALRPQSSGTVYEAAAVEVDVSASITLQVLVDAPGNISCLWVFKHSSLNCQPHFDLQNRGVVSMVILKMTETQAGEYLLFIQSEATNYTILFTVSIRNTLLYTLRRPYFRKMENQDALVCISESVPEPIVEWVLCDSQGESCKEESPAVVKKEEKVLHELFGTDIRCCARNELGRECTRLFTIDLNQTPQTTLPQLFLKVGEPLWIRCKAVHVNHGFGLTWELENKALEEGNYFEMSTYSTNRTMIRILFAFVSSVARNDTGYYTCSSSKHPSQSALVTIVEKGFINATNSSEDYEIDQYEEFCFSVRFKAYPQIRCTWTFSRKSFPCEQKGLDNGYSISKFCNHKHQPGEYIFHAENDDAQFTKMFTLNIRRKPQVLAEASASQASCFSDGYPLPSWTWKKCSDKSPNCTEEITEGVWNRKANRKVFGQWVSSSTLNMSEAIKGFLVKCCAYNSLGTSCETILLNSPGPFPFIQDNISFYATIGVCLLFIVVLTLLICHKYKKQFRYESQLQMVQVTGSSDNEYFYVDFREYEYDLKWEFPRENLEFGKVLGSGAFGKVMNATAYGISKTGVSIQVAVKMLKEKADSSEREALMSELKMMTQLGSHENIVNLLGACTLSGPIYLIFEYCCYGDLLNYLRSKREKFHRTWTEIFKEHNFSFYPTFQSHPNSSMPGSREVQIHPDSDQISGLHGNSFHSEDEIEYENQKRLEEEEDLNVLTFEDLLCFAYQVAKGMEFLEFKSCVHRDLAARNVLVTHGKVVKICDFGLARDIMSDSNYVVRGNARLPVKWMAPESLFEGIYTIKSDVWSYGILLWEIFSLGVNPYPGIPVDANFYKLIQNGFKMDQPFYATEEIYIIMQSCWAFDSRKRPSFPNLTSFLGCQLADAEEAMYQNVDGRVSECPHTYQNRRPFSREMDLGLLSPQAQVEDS
The experiment in a line: Inhibition of wild type FLT3 (unknown origin).

Experiment [7] relates to BaF3. The experiment in a line: Antiproliferative activity against mouse BaF3 cells harbouring FLT3-ITD-N676D mutant. Format: functional, cell-based.
The test system of a further experiment is MOLM-13. Briefly: Antiproliferative activity against human MOLM-13 cells. Format: functional, cell-based.
The next experiment relates to MV4-11. Briefly: Antiproliferative activity against human MV4-11 cells. Format: functional, cell-based.
For experiment [8], the system named is BaF3. The experiment in a line: Antiproliferative activity against mouse BaF3 cells harbouring FLT3-ITD-D835V mutant. Format: functional, cell-based.

Each structure is given as a SMILES string.

A word on the IC50: it is the concentration at which inhibition is half-maximal. Higher therefore signals weaker potency.

On to `Cc1cc(-c2ccc(NC(=O)Nc3ccc(C(C)(C)C)cc3)cc2)c2c(N)noc2n1`, for which the IC50 in experiment [1] is 96.7 nM; in experiment [2], above 1000 nM; in [3], 55.4 nM; in [4], 113 nM.
On to `COc1cccc(CC(=O)Nc2ccc(-c3cc(C)nc4nocc34)cc2)c1`, for which the IC50 turned out to be 3570 nM in the experiment on BaF3 [5]; 103 nM in [6]; 1160 nM in the experiment with BaF3 [7]; 140 nM with MOLM-13; 58 nM with MV4-11; 8420 nM with BaF3 [8].

For the origin of these results see ChEMBL document CHEMBL6078625 (J Med Chem, 2024).
